In patent US20240018145A1, “[…]-DEPENDENT EN[…] TREATING OR […]” (priority 2020, published 2024):
pEC50: −log10 of the molar value.

Tested on: FLU A (PR/8/34)
Assay: Flu A Neuraminidase Antiviral Assay
Format: cell-based

First: CCc1ccccc1C1C(CC(F)(F)F)CCC2N(C)C(=O)c3c(O)c(=O)ccn3N12 (single isomer, unassigned) [Compound 112A, 1-(2-ethylphenyl)-7-hydroxy-5-methyl-2-(2,2,2-trifluoroethyl)-1,2,3,4,4a,5-hexahydrodipyrido[1,2-b:2′,1′-f][1,2,4]triazine-6,8-dione]
Second: Cc1ccccc1C1C(CC(F)(F)F)CCC2N(C)C(=O)c3c(O)c(=O)ccn3N12 (single isomer, unassigned) [Compound 120A, 7-hydroxy-5-methyl-1-(o-tolyl)-2-(2,2,2-trifluoroethyl)-1,2,3,4,4a,5-hexahydrodipyrido[1,2-b:2′,1′-f][1,2,4]triazine-6,8-dione]
The pEC50 of the first is 2.87 log units higher: 8.43 for the first, 5.56 for the second. The first is the more potent here.

First: CCc1ccccc1C1C(CC(F)(F)F)CCC2N(C)C(=O)c3c(O)c(=O)ccn3N12 (single isomer, unassigned) [Compound 112B, 1-(2-ethylphenyl)-7-hydroxy-5-methyl-2-(2,2,2-trifluoroethyl)-1,2,3,4,4a,5-hexahydrodipyrido[1,2-b:2′,1′-f][1,2,4]triazine-6,8-dione]
Second: Cc1ccccc1C1C(CC(F)(F)F)CCC2N(C)C(=O)c3c(O)c(=O)ccn3N12 (single isomer, unassigned) [Compound 120B, 7-hydroxy-5-methyl-1-(o-tolyl)-2-(2,2,2-trifluoroethyl)-1,2,3,4,4a,5-hexahydrodipyrido[1,2-b:2′,1′-f][1,2,4]triazine-6,8-dione]
The pEC50 of the first is 1.93 log units lower: 6.79 for the first, 8.72 for the second. The second is the more potent here.

`CN1C(=O)c2c(O)c(=O)ccn2N2C(c3ccccc3F)C(CC(F)F)CCC12` (single isomer, unassigned) [Compound 113A, 2-(2,2-difluoroethyl)-1-(2-fluorophenyl)-7-hydroxy-5-methyl-1,2,3,4,4a,5-hexahydrodipyrido[1,2-b:2′,1′-f][1,2,4]triazine-6,8-dione] and `CN1C(=O)c2c(O)c(=O)ccn2N2C(c3ccccc3Cl)C(CC(F)(F)F)CCC12` (single isomer, unassigned) [Compound 119A, 1-(2-chlorophenyl)-7-hydroxy-5-methyl-2-(2,2,2-trifluoroethyl)-1,2,3,4,4a,5-hexahydrodipyrido[1,2-b:2′,1′-f][1,2,4]triazine-6,8-dione] are within 0.2 log units of each other in pEC50: 5.46 for the first, 5.51 for the second.

Compared with `CN1C(=O)c2c(O)c(=O)ccn2N2C(c3ccccc3F)C(CC(F)F)CCC12` (single isomer, unassigned) [Compound 113B, 2-(2,2-difluoroethyl)-1-(2-fluorophenyl)-7-hydroxy-5-methyl-1,2,3,4,4a,5-hexahydrodipyrido[1,2-b:2′,1′-f][1,2,4]triazine-6,8-dione], `CN1C(=O)c2c(O)c(=O)ccn2N2C(c3ccccc3Cl)C(CC(F)(F)F)CCC12` (single isomer, unassigned) [Compound 119B, 1-(2-chlorophenyl)-7-hydroxy-5-methyl-2-(2,2,2-trifluoroethyl)-1,2,3,4,4a,5-hexahydrodipyrido[1,2-b:2′,1′-f][1,2,4]triazine-6,8-dione] is 0.43 log units higher in pEC50: 8.14 for the first, 8.57 for the second.

`CN1C(=O)c2c(O)c(=O)ccn2N2C(c3ccccc3)C(CC3CC3(F)F)CCC12` (single isomer, unassigned) [Compound 114A, 2-((2,2-difluorocyclopropyl)methyl)-7-hydroxy-5-methyl-1-phenyl-1,2,3,4,4a,5-hexahydrodipyrido[1,2-b:2′,1′-f][1,2,4]triazine-6,8-dione] and `CN1C(=O)c2c(O)c(=O)ccn2N2C(c3ccccc3)C(CC(F)(F)F)CCC12` (single isomer, unassigned) [Compound 118A, 7-hydroxy-5-methyl-1-phenyl-2-(2,2,2-trifluoroethyl)-1,2,3,4,4a,5-hexahydrodipyrido[1,2-b:2′,1′-f][1,2,4]triazine-6,8-dione] cannot be ordered by pEC50: < 5.09 for the first, < 5.09 for the second.

First: CN1C(=O)c2c(O)c(=O)ccn2N2C(c3ccccc3)C(CC3CC3(F)F)CCC12 (single isomer, unassigned) [Compound 114B, 2-((2,2-difluorocyclopropyl)methyl)-7-hydroxy-5-methyl-1-phenyl-1,2,3,4,4a,5-hexahydrodipyrido[1,2-b:2′,1′-f][1,2,4]triazine-6,8-dione]
Second: CN1C(=O)c2c(O)c(=O)ccn2N2C(c3ccccc3)C(CC(F)(F)F)CCC12 (single isomer, unassigned) [Compound 118B, 7-hydroxy-5-methyl-1-phenyl-2-(2,2,2-trifluoroethyl)-1,2,3,4,4a,5-hexahydrodipyrido[1,2-b:2′,1′-f][1,2,4]triazine-6,8-dione]
The pEC50 of the first is lower: < 5.09 for the first, 8.51 for the second.

Going from `CN1C(=O)c2c(O)c(=O)ccn2N2C(c3ccccc3)C(CC3CC3(F)F)CCC12` (single isomer, unassigned) [Compound 114C, 2-((2,2-difluorocyclopropyl)methyl)-7-hydroxy-5-methyl-1-phenyl-1,2,3,4,4a,5-hexahydrodipyrido[1,2-b:2′,1′-f][1,2,4]triazine-6,8-dione] to `CN1C(=O)c2c(O)c(=O)ccn2N2C(c3ccccc3)C(CCC3CC3)CCC12` (single isomer, unassigned) [Compound 115A, 2-(2-cyclopropylethyl)-7-hydroxy-5-methyl-1-phenyl-1,2,3,4,4a,5-hexahydrodipyrido[1,2-b:2′,1′-f][1,2,4]triazine-6,8-dione], the pEC50 falls from 8.28 to < 5.09. The first is the more potent here.

First: CN1C(=O)c2c(O)c(=O)ccn2N2C(c3ccccc3)C(CC3CC3(F)F)CCC12 (single isomer, unassigned) [Compound 114D, 2-((2,2-difluorocyclopropyl)methyl)-7-hydroxy-5-methyl-1-phenyl-1,2,3,4,4a,5-hexahydrodipyrido[1,2-b:2′,1′-f][1,2,4]triazine-6,8-dione]
Second: CN1C(=O)c2c(O)c(=O)ccn2N2C(c3ccccc3)C(CCC3CC3)CCC12 (single isomer, unassigned) [Compound 115B, 2-(2-cyclopropylethyl)-7-hydroxy-5-methyl-1-phenyl-1,2,3,4,4a,5-hexahydrodipyrido[1,2-b:2′,1′-f][1,2,4]triazine-6,8-dione]
The pEC50 of the first is higher: 8.64 for the first, < 5.09 for the second. The first is the more potent here.

First: CN1C(=O)c2c(O)c(=O)ccn2N2C(c3ccccc3)C(CCC3CC3)CCC12 (single isomer, unassigned) [Compound 115C, 2-(2-cyclopropylethyl)-7-hydroxy-5-methyl-1-phenyl-1,2,3,4,4a,5-hexahydrodipyrido[1,2-b:2′,1′-f][1,2,4]triazine-6,8-dione]
Second: CN1C(=O)c2c(O)c(=O)ccn2N2C(c3ccccc3)C(Cc3ccccc3)CCC12 (single isomer, unassigned) [Compound 117A, 2-benzyl-7-hydroxy-5-methyl-1-phenyl-1,2,3,4,4a,5-hexahydrodipyrido[1,2-b:2′,1′-f][1,2,4]triazine-6,8-dione]
The pEC50 of the first is 3.12 log units higher: 8.57 for the first, 5.45 for the second. The first is the more potent here.

Compared with `CN1C(=O)c2c(O)c(=O)ccn2N2C(c3ccccc3)C(CCC3CC3)CCC12` (single isomer, unassigned) [Compound 115D, 2-(2-cyclopropylethyl)-7-hydroxy-5-methyl-1-phenyl-1,2,3,4,4a,5-hexahydrodipyrido[1,2-b:2′,1′-f][1,2,4]triazine-6,8-dione], `CN1C(=O)c2c(O)c(=O)ccn2N2C(c3ccccc3)C(Cc3ccccc3)CCC12` (single isomer, unassigned) [Compound 117B, 2-benzyl-7-hydroxy-5-methyl-1-phenyl-1,2,3,4,4a,5-hexahydrodipyrido[1,2-b:2′,1′-f][1,2,4]triazine-6,8-dione] is 1.21 log units lower in pEC50: 8.16 for the first, 6.95 for the second.

Going from `CN1C(=O)c2c(O)c(=O)ccn2N2C(c3ccccc3)C(c3cccc(F)c3F)CCC12` (single isomer, unassigned) [Compound 116A, 2-(2,3-difluorophenyl)-7-hydroxy-5-methyl-1-phenyl-1,2,3,4,4a,5-hexahydrodipyrido[1,2-b:2′,1′-f][1,2,4]triazine-6,8-dione] to `CN1C(=O)c2c(O)c(=O)ccn2N2C(c3c(F)cccc3F)C(CC(F)(F)F)CCC12` (single isomer, unassigned) [Compound 123A, 1-(2,6-difluorophenyl)-7-hydroxy-5-methyl-2-(2,2,2-trifluoroethyl)-1,2,3,4,4a,5-hexahydrodipyrido[1,2-b:2′,1′-f][1,2,4] triazine-6,8-dione], the pEC50 falls from 5.21 to < 5.09. The first is the more potent here.

First: CN1C(=O)c2c(O)c(=O)ccn2N2C(c3ccccc3)C(c3cccc(F)c3F)CCC12 (single isomer, unassigned) [Compound 116B, 2-(2,3-difluorophenyl)-7-hydroxy-5-methyl-1-phenyl-1,2,3,4,4a,5-hexahydrodipyrido[1,2-b:2′,1′-f][1,2,4]triazine-6,8-dione]
Second: CN1C(=O)c2c(O)c(=O)ccn2N2C(c3c(F)cccc3F)C(CC(F)(F)F)CCC12 (single isomer, unassigned) [Compound 123B, 1-(2,6-difluorophenyl)-7-hydroxy-5-methyl-2-(2,2,2-trifluoroethyl)-1,2,3,4,4a,5-hexahydrodipyrido[1,2-b:2′,1′-f][1,2,4] triazine-6,8-dione]
The pEC50 of the first is 0.22 log units lower: 8.16 for the first, 8.38 for the second.

`CN1C(=O)c2c(O)c(=O)ccn2N2C(c3cccc(F)c3)C(CC(F)(F)F)CCC12` (single isomer, unassigned) [Compound 121A, 1-(3-fluorophenyl)-7-hydroxy-5-methyl-2-(2,2,2-trifluoroethyl)-1,2,3,4,4a,5-hexahydrodipyrido[1,2-b:2′,1′-f][1,2,4]triazine-6,8-dione] and `CN1C(=O)c2c(O)c(=O)ccn2N2C(c3ccc(F)cc3)C(CC(F)(F)F)CCC12` (single isomer, unassigned) [Compound 122A, 1-(4-fluorophenyl)-7-hydroxy-5-methyl-2-(2,2,2-trifluoroethyl)-1,2,3,4,4a,5-hexahydrodipyrido[1,2-b:2′,1′-f][1,2,4]triazine-6,8-dione] are within 0.2 log units of each other in pEC50: 6.37 for the first, 6.46 for the second.

`CN1C(=O)c2c(O)c(=O)ccn2N2C(c3cccc(F)c3)C(CC(F)(F)F)CCC12` (single isomer, unassigned) [Compound 121B, 1-(3-fluorophenyl)-7-hydroxy-5-methyl-2-(2,2,2-trifluoroethyl)-1,2,3,4,4a,5-hexahydrodipyrido[1,2-b:2′,1′-f][1,2,4]triazine-6,8-dione] and `CN1C(=O)c2c(O)c(=O)ccn2N2C(c3ccc(F)cc3)C(CC(F)(F)F)CCC12` (single isomer, unassigned) [Compound 122B, 1-(4-fluorophenyl)-7-hydroxy-5-methyl-2-(2,2,2-trifluoroethyl)-1,2,3,4,4a,5-hexahydrodipyrido[1,2-b:2′,1′-f][1,2,4]triazine-6,8-dione] are within 0.2 log units of each other in pEC50: 8.24 for the first, 8.28 for the second.
